Measured values: PubChem BioAssay AID212 (DTP/NCI, 2004)
Several values for one entry are separate records, joined by “and”; a condition that tells them apart may be missing. Equal values may be shown once. Records with an inconclusive call do not appear.

System: BDF1 mice, colon carcinoma 38 sc, T/C %
Experiment: NCI In Vivo Anticancer Drug Screen. Data for tumor model Colon Carcinoma 38 (subcutaneous) in B6D2F1 (BDF1) mice
How it was run: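 Mice with transplanted tumors are treated with compound or vehicle. Survival or tumor size is then measured in both groups. The ratio of treated to control gives the reported figure.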

[1] = endpoint: median tumor weight (est.), dose: 25.0 mg/kg/injection, schedule: Q07DX002 (ip), vehicle: Klucel (hydroxypropylcellulose) (HPC), higher = larger tumour
[2] = endpoint: median tumor weight (est.), dose: 50.0 mg/kg/injection, schedule: Q07DX002 (ip), vehicle: Klucel (hydroxypropylcellulose) (HPC), higher = larger tumour
[3] = endpoint: median tumor weight (est.), dose: 3.12 mg/kg/injection, schedule: Q07DX002 (ip), vehicle: Klucel (hydroxypropylcellulose) (HPC), higher = larger tumour
[4] = endpoint: median tumor weight (est.), dose: 6.25 mg/kg/injection, schedule: Q07DX002 (ip), vehicle: Klucel (hydroxypropylcellulose) (HPC), higher = larger tumour
[5] = endpoint: median tumor weight (est.), dose: 12.5 mg/kg/injection, schedule: Q07DX002 (ip), vehicle: Klucel (hydroxypropylcellulose) (HPC), higher = larger tumour

O=S(=O)(O)O
T/C [1]: 110 % of control
T/C [2]: 103 % of control
T/C (endpoint: median tumor weight (est.), dose: 100.0 mg/kg/injection, schedule: Q07DX002 (ip), vehicle: Klucel (hydroxypropylcellulose) (HPC), higher = larger tumour): 78 % of control
T/C (endpoint: median tumor weight (est.), dose: 200.0 mg/kg/injection, schedule: Q07DX002 (ip), vehicle: Klucel (hydroxypropylcellulose) (HPC), higher = larger tumour): 112 % of control

c1cc[c]([Sn]([NH]c2ncnc3[nH]cnc23)([NH]c2ncnc3[nH]cnc23)[c]2ccccc2)cc1
T/C (endpoint: median tumor weight (est.), dose: 25.0 mg/kg/injection, schedule: Q07DX002 (ip), vehicle: saline, higher = larger tumour): 51 % of control
T/C (endpoint: median tumor weight (est.), dose: 50.0 mg/kg/injection, schedule: Q07DX002 (ip), vehicle: saline, higher = larger tumour): 84 % of control
T/C (endpoint: median tumor weight (est.), dose: 100.0 mg/kg/injection, schedule: Q07DX002 (ip), vehicle: saline, higher = larger tumour): 46 % of control
T/C (endpoint: median tumor weight (est.), dose: 200.0 mg/kg/injection, schedule: Q07DX002 (ip), vehicle: saline, higher = larger tumour): 81 % of control
T/C (endpoint: median tumor weight (est.), dose: 400.0 mg/kg/injection, schedule: Q07DX002 (ip), vehicle: saline, higher = larger tumour): 66 % of control

N#C[Se-].c1ccc([Te+](c2ccccc2)c2ccccc2)cc1
T/C [3]: 181 % of control
T/C [4]: 80 % of control
T/C [5]: 65 % of control
T/C [1]: 186 % of control

C1CCC2OCCOCCOC3CCCCC3OCCOCCOC2C1 (stereo unspecified)
T/C [3]: 210 % of control and 96 % of control
T/C [4]: 176 % of control
T/C [5]: 85 % of control
T/C [2]: 85 % of control

CC(=O)Oc1ccccc1C(=O)O
T/C (endpoint: median tumor weight (est.), dose: 32.0 mg/kg/injection, schedule: Q07DX002 (ip), vehicle: saline with Tween-80, higher = larger tumour): 102 % of control
T/C (endpoint: median tumor weight (est.), dose: 64.0 mg/kg/injection, schedule: Q07DX002 (ip), vehicle: saline with Tween-80, higher = larger tumour): 53 % of control
T/C (endpoint: median tumor weight (est.), dose: 72.0 mg/kg/injection, schedule: Q07DX002 (ip), vehicle: saline with Tween-80, higher = larger tumour): 122 % of control
T/C (endpoint: median tumor weight (est.), dose: 128.0 mg/kg/injection, schedule: Q07DX002 (ip), vehicle: saline with Tween-80, higher = larger tumour): 76 % of control
T/C (endpoint: median tumor weight (est.), dose: 144.0 mg/kg/injection, schedule: Q07DX002 (ip), vehicle: saline with Tween-80, higher = larger tumour): 118 % of control
T/C (endpoint: median tumor weight (est.), dose: 256.0 mg/kg/injection, schedule: Q07DX002 (ip), vehicle: saline with Tween-80, higher = larger tumour): 97 % of control
T/C (endpoint: median tumor weight (est.), dose: 518.0 mg/kg/injection, schedule: Q07DX002 (ip), vehicle: saline with Tween-80, higher = larger tumour): 90 % of control
T/C (endpoint: median tumor weight (est.), dose: 1152.0 mg/kg/injection, schedule: Q07DX002 (ip), vehicle: saline with Tween-80, higher = larger tumour): 118 % of control

c1ccc2c(NCCCCCCCCNc3c4ccccc4nc4ccccc34)c3ccccc3nc2c1
T/C (endpoint: median tumor weight (est.), dose: 5.0 mg/kg/injection, schedule: Q07DX002 (ip), vehicle: Klucel (hydroxypropylcellulose) (HPC), higher = larger tumour): 109 % of control and 101 % of control
T/C (endpoint: median tumor weight (est.), dose: 10.0 mg/kg/injection, schedule: Q07DX002 (ip), vehicle: Klucel (hydroxypropylcellulose) (HPC), higher = larger tumour): 78 % of control and 93 % of control
T/C (endpoint: median tumor weight (est.), dose: 20.0 mg/kg/injection, schedule: Q07DX002 (ip), vehicle: Klucel (hydroxypropylcellulose) (HPC), higher = larger tumour): 75 % of control and 77 % of control
T/C (endpoint: median tumor weight (est.), dose: 40.0 mg/kg/injection, schedule: Q07DX002 (ip), vehicle: Klucel (hydroxypropylcellulose) (HPC), higher = larger tumour): 72 % of control and 87 % of control
T/C (endpoint: median tumor weight (est.), dose: 80.0 mg/kg/injection, schedule: Q07DX002 (ip), vehicle: Klucel (hydroxypropylcellulose) (HPC), higher = larger tumour): 79 % of control and 100 % of control

CN(C)CCOc1ccc2c(c1)C/C(=C/c1ncc([N+](=O)[O-])n1C)C2=O
T/C (endpoint: median tumor weight (est.), dose: 12.5 mg/kg/injection, schedule: Q07DX002 (ip), vehicle: saline with Tween-80, higher = larger tumour): 76 % of control
T/C (endpoint: median tumor weight (est.), dose: 25.0 mg/kg/injection, schedule: Q07DX002 (ip), vehicle: saline with Tween-80, higher = larger tumour): 94 % of control
T/C (endpoint: median tumor weight (est.), dose: 50.0 mg/kg/injection, schedule: Q07DX002 (ip), vehicle: saline with Tween-80, higher = larger tumour): 106 % of control
T/C (endpoint: median tumor weight (est.), dose: 100.0 mg/kg/injection, schedule: Q07DX002 (ip), vehicle: saline with Tween-80, higher = larger tumour): 91 % of control
T/C (endpoint: median tumor weight (est.), dose: 200.0 mg/kg/injection, schedule: Q07DX002 (ip), vehicle: saline with Tween-80, higher = larger tumour): 106 % of control
T/C (endpoint: median tumor weight (est.), dose: 400.0 mg/kg/injection, schedule: Q07DX002 (ip), vehicle: saline with Tween-80, higher = larger tumour): 50 % of control

CCCCNC(C)[C@]1(O)Cc2c(O)c3c(c(O)c2[C@@H](OC2CC(N)C(O)C(C)O2)C1)C(=O)c1c(OC)cccc1C3=O (stereo partly specified)
T/C (endpoint: median survival time, dose: 16.0 mg/kg/injection, schedule: Q07DX002 (sc), vehicle: saline, higher = longer survival): 113 % of control
T/C (endpoint: median survival time, dose: 26.0 mg/kg/injection, schedule: Q07DX002 (sc), vehicle: saline, higher = longer survival): 151 % of control
T/C (endpoint: median tumor weight (est.), dose: 3.38 mg/kg/injection, schedule: Q07DX002 (ip), vehicle: saline, higher = larger tumour): 89 % of control
T/C (endpoint: median tumor weight (est.), dose: 6.75 mg/kg/injection, schedule: Q07DX002 (ip), vehicle: saline, higher = larger tumour): 88 % of control
T/C (endpoint: median tumor weight (est.), dose: 13.5 mg/kg/injection, schedule: Q07DX002 (ip), vehicle: saline, higher = larger tumour): 81 % of control
